Tests used:
[1] = system: centrally acting emetogens (apomorphine IV) and peripherally acting emetogens (syrup of ipecac orally); settings: dogs; cited from earlier work
[2] = system: chemotherapy induced nausea and vomiting; settings: humans; cited from earlier work
[3] = system: apomorphine-induced emesis; test: Apomorphine-induced emesis model; type: in vivo, dog; settings: single oral dose 5 mg/kg; FIGS. 5A-5B
From the text: Apomorphine-induced emesis model is a well-established canine model to investigate antiemetic actions of new compounds and has been used in studies investigating new NK1 antagonists (Furukawa et al. Biol Pharm Bull 36:974-979, 2013) as well as Cerenia and other antiemetic drugs used in dogs (Sedlacek et al. J Vet Pharmacol Therap 31:533-537, 2008).
The canine model of apomorphine-induced emesis is a well-established model to investigate antiemetic actions of new compounds and has been used in studies investigating new NK1 antagonists (Furukawa et al. Biol Pharm Bull 36:974-979, 2013) as well as Cerenia and other antiemetic drugs used in dogs (Sedlacek et al. J Vet Pharmacol Therap 31:533-537, 2008). This model was used to evaluate the antiemetic activity of telmapitant in non-aqueous solution formulations and solid formulations (FIGS. 4A and 4B). The onset of action (FIGS. 4A and 4B) as well as the duration of activity (FIGS. 5A and 5B) were investigated after a single oral administration. Intravenous (IV) administration of apomorphine (emetogenic challenge 0.03 mg/kg) was delivered to all individuals 2 h, 4 h, 6 h, 8 h, 24 h, and 120 h (FIGS. 4A and 4B) or 1 d, 3 d, 5 d, 6 d, and 7 d (FIGS. 5A and 5B). […] Any emetic events (vomiting episodes and/or retches) following each emetogenic challenge were recorded for 20 min. […]

COc1ccc(C(C)(C)C)cc1CN[C@H]1C2CCN(CC2)[C@H]1C(c1ccccc1)c1ccccc1 [maropitant]
antiemetic effectiveness against emetogens [1]: effective

C[C@@H](OC[C@@]1(c2ccccc2)CC[C@]2(CCC(=O)N2)CN1)c1cc(C(F)(F)F)cc(C(F)(F)F)c1 [rolapitant]
efficacy and safety for prevention of chemotherapy induced nausea and vomiting [2]: efficacious and safe

C[C@@H](OC[C@@]1(c2ccccc2)CC[C@]2(CN1)NC(=O)NC2=O)c1cc(C(F)(F)F)cc(C(F)(F)F)c1 [telmapitant, (5R,8S)-8-[[(1R)-1-[3,5-bis(trifluoromethyl)phenyl]ethoxy]methyl]-8-phenyl-1,3,9-triazaspiro[4.5]decane-2,4-dione]
antiemetic data at 5 mg/kg versus 7 mg/kg [3]: not significantly different

Reference: US20210361565A1, “Oral Pharmaceutical Composition of an NK-1 Antagonist” (Intervet Inc., priority 2017, published 2021)
